Test results from patent publication USRE44599E1, “Quinazolinones as inhibitors of human phosphatidylinositol 3-kinase delta” (ICOS Corporation, priority 2004, dated 2013).

Tests used:
[1] = system: neutrophil; conditions: cited from earlier work
[2] = system: osteoclasts; assay: Osteoclast function (pit depths on dentine slices); assay type: cell-based, mouse; conditions: PI3K inhibitors 100 nM, 72 hr
Experimental: To analyze the effect of the present PI3Kδ inhibitor compounds on osteoclasts, mouse bone marrow cells are isolated and differentiated to osteoclasts by treating the cells with Macrophage Colony Stimulating Factor^−1 (mCSF^−1) and Osteoprotegerin Ligand (OPGL) in serum-containing medium (αMEM with 10% heat-inactivated FBS; Sigma) for 3 days. On day four, when the osteoclasts had developed, the medium is removed and cells are harvested. The osteoclasts are plated on dentine slices at 10^5 cells/well in growth medium, i.e., αMEM containing 1% serum and 2% BSA with […] OPGL and 10 ng/mL mCSF^−1. After 3 hr, the medium is changed to 1% serum and 1% BSA, with or without osteopontin (25 μg/mL) and the PI3K inhibitors (100 nM). The medium is changed every 24 hours with fresh osteopontin and the inhibitors. At 72 hr, the medium is removed, and the dentine surfaces are washed with water to remove cell debris and stained with acid hematoxylin. Excess stain is washed and the pit depths are quantitated using confocal microscopy.

[3] = system: neutrophil; conditions: cited from earlier work; remark: listed apart in the source
[4] = system: Class I PI 3-kinases; conditions: read-out: IC50 against each of the various Class I PI 3-kinases; cited from earlier work

Row | Structure (SMILES) | superoxide release [1] | osteoclast activity [2] | neutrophil migration [3] | IC50 [4] [nM]
1 | O=c1cc(N2CCOCC2)oc2c(-c3ccccc3)cccc12 [LY294002] | block neutrophil migration and superoxide release | inhibited osteoclast activity | block neutrophil migration | –
2 | COC[C@H]1OC(=O)c2coc3c2[C@@]1(C)C1=C(C3=O)[C@@H]2CCC(=O)[C@@]2(C)C[C@H]1OC(C)=O [wortmannin] | block neutrophil migration and superoxide release | inhibited osteoclast activity | block neutrophil migration | 1 to 10
